The record followed here is ChEMBL document CHEMBL5385858, “Identification of novel Pyrrolo[2,3-d]Pyrimidine-based KRAS G12C inhibitors with anticancer effects” (Eur J Med Chem, 2023).

The target in one test is SOS1-KRAS (Homo sapiens, UniProt P01116, G12C). Nature of the test: Inhibition of KRAS G12C mutant/SOS1 (unknown origin) interaction incubated for 2 hrs in presence of GTP by HTRF assay. In kind it is protein-complex assay. For orientation: In TR-FRET formats the signal depends on donor and acceptor labels being close together.
SOS1-KRAS, sequence (P01116 whole entry G12C, looked up): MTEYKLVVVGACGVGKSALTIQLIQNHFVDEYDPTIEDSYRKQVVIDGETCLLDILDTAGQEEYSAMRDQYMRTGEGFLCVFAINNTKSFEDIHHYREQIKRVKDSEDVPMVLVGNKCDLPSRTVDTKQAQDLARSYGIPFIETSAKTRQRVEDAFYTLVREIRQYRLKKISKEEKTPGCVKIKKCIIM
The test system of test [1] is NCI-H358. The experiment in a line: Antiproliferative activity against human NCI-H358 cells harboring KRAS G12C/Y96D mutant assessed as inhibition of cell proliferation incubated for 48 hrs by CCK8 assay. The format is functional, cell-based.
Another test relates to MIA PaCa-2. Nature of the test: Antiproliferative activity against human MIA PaCa-2 cells harboring KRAS G12C mutant assessed as inhibition of cell proliferation incubated for 3 days by CCK8 assay. In kind it is functional, cell-based. To be noted: MIA PaCa-2, 72 h.
In test [2] the test system is NCI-H358. The experiment in a line: Induction of apoptosis in human NCI-H358 cells assessed as early apoptotic cells at 0.1 uM incubated for 24 hrs by Annexin V-FITC/PI staining based flow cytometry (reference value: 5.4 %). In kind it is functional. In general terms: In flow cytometry, cells or beads pass a laser one at a time.
For the next test, the system named is NCI-H1975. The experiment in a line: Antiproliferative activity against human NCI-H1975 cells harboring wild-type KRAS assessed as inhibition of cell proliferation incubated for 3 days by CCK8 assay. The format is functional, cell-based. The settings on record: NCI-H1975, 72 h. A general note: Tetrazolium dyes change colour on reduction, which living cells bring about.

Test [3] concerns NCI-H358. The experiment in a line: Induction of apoptosis in human NCI-H358 cells assessed as viable cells at 0.1 uM incubated for 24 hrs by Annexin V-FITC/PI staining based flow cytometry (reference value: 91.4 %). In kind it is functional.
Test [4] relates to NCI-H358. Nature of the test: Induction of apoptosis in human NCI-H358 cells assessed as necrotic cells at 0.1 uM incubated for 24 hrs by Annexin V-FITC/PI staining based flow cytometry (reference value: 1.88 %). The format is functional.
For test [5], the system named is NCI-H358. Nature of the test: Inhibition of cell invasion in human NCI-H358 cells measured for 24 hrs by transwell assay. The format is functional, cell-based.
The subject of a further test is A549. Nature of the test: Antiproliferative activity against human A549 cells harboring KRAS G12S mutant assessed as inhibition of cell proliferation incubated for 3 days by CCK8 assay. In kind it is functional, cell-based. The settings on record: A549, 72 h.
For test [6], the system named is NCI-H358. The experiment in a line: Induction of apoptosis in human NCI-H358 cells assessed as late apoptotic cells at 0.1 uM incubated for 24 hrs by Annexin V-FITC/PI staining based flow cytometry (reference value: 1.32 %). In kind it is functional.
The subject of test [7] is NCI-H358. The experiment in a line: Antiproliferative activity against human NCI-H358 cells harboring KRAS G12C mutant assessed as inhibition of cell proliferation incubated for 3 days by CCK8 assay. The format is functional, cell-based. To be noted: NCI-H358, 72 h.
For test [8], the system named is NCI-H358. The experiment in a line: Antitumor activity in human NCI-H358 cells xenografted in BALB/c-nu/nu mouse assessed as tumor growth inhibition at 10 mg/kg, po qd treated for 20 days relative to control. In kind it is functional. The settings on record: time 20 day.
The subject of test [9] is NCI-H358. The experiment in a line: Inhibition of cell migration in human NCI-H358 cells at 0.1 uM measured for 48 hrs by wound scratch assay. In kind it is functional, cell-based.

Calls of active or inactive are those of the source. No cut-off for these calls is given here.

Turning to `C=CC(=O)N1CCN(c2nc(OCC34CCCN3CCC4)nc3c2cc(-c2cccc4cccc(C)c24)n3C)C[C@@H]1CC#N`, on SOS1-KRAS, the half-inhibitory concentration (IC50) (commonly the point on the concentration scale where inhibition reaches its midpoint) came out at 0.34 µM.

Regarding `C=CC(=O)N1CCN(c2nc(OCCN(C(C)C)C(C)C)nc3c2cc(-c2cccc4cccc(C)c24)n3C)C[C@@H]1CC#N`, the 50% inhibitory concentration (IC50) on SOS1-KRAS was greater than 10 µM.

In the case of `C=C(F)C(=O)N1CCN(c2nc(OC[C@@H]3CCCN3C)nc3c2CCN(c2cccc4cccc(Cl)c24)C3)C[C@@H]1CC#N` [ADAGRASIB], the inhibition entry in the test on NCI-H358 [1] was “inactive”. The IC50 in the test on MIA PaCa-2 stood at 0.05 µM; with NCI-H1975, 6.37 µM; with A549, 12.9 µM; with NCI-H358 [7], 0.02 µM. Besides, the Activity with NCI-H358 [2] was 14.5%; in the test on NCI-H358 [3], 79.9%; in the test with NCI-H358 [4] it was 1.04%; with NCI-H358 [5], “Dose-Dependent Effect”; in the test on NCI-H358 [6] it was 4.52%. The tumour growth inhibition (TGI) (in general, how far tumour growth fell short of that in controls) with NCI-H358 [8] is recorded as 69.3%. The result in the test on NCI-H358 [9] was Active.

As for `C=CC(=O)N1CCN(c2nc(OC[C@@H]3CCCN3C)nc3c2cc(-c2cccc4cccc(OC)c24)n3C)C[C@@H]1CC#N`, the IC50 at SOS1-KRAS is greater than 10 µM.

`C=CC(=O)N1CCN(c2nc(N3CCOCC3)nc3c2cc(-c2cccc4cccc(C)c24)n3C)C[C@@H]1CC#N`: the IC50 at SOS1-KRAS is greater than 10 µM.

Regarding `C=CC(=O)N1CCN(c2nc(OC[C@@H]3CCCN3C)nc3c2cc(-c2c(C)ccc4c2cnn4C)n3C)C[C@@H]1CC#N`, at SOS1-KRAS, the IC50 was greater than 10 µM.

On to `C=CC(=O)N1CCN(c2nc(N3CCN(C)CC3)nc3c2cc(-c2cccc4cccc(C)c24)n3C)C[C@@H]1CC#N`, for which, at SOS1-KRAS, the 50% inhibitory concentration (IC50) was greater than 10 µM.

As for `C=CC(=O)N1CCN(c2nc(OC[C@H]3CCCN3C)nc3c2cc(-c2cccc4cccc(C)c24)n3C)C[C@@H]1CC#N`, the IC50 at SOS1-KRAS stood at 1.94 µM.

Turning to `C=CC(=O)N1CCN(c2nc(OC[C@@H]3CCCN3C)nc3c2cc(-c2cccc4cccc(O)c24)n3C)C[C@@H]1CC#N`, the half-inhibitory concentration (IC50) on SOS1-KRAS is 3.24 µM.

On to `C=CC(=O)N1CCN(c2nc(NCCN(C)C)nc3c2cc(-c2cccc4cccc(C)c24)n3C)C[C@@H]1CC#N`, for which, on SOS1-KRAS, the IC50 is greater than 10 µM.

As for `C=CC(=O)N1CCN(c2nc(OC[C@@H]3CCCN3C)nc3c2cc(-c2ccc4[nH]ncc4c2)n3C)C[C@@H]1CC#N`, on SOS1-KRAS, the 50% inhibitory concentration (IC50) is greater than 10 µM.

Regarding `C=CC(=O)N1CCN(c2nc(OCCN(C)C)nc3c2cc(-c2cccc4cccc(C)c24)n3C)C[C@@H]1CC#N`, the half-inhibitory concentration (IC50) on SOS1-KRAS was greater than 10 µM.

Regarding `C=CC(=O)N1CCN(c2nc(OC[C@@H]3CCCN3C)nc3c2cc(-c2c(C)ccc4[nH]ncc24)n3C)C[C@@H]1CC#N`, the IC50 at SOS1-KRAS was greater than 10 µM.

In the case of `C=CC(=O)N1CCN(c2nc(OC[C@@H]3CCCN3C)nc3c2cc(-c2cc(O)cc4ccccc24)n3C)C[C@@H]1CC#N`, the half-inhibitory concentration (IC50) on SOS1-KRAS amounted to 2.04 µM.

Regarding `C=CC(=O)N1CCN(c2nc(OC[C@@H]3CCCN3C)nc3c2cc(-c2cccc4cccc(C)c24)n3C)C[C@@H]1CC#N`, at SOS1-KRAS, the 50% inhibitory concentration (IC50) turned out to be 1.54 µM.

As for `C=CC(=O)N1CCN(c2nc(OC[C@@H]3CCCN3C)nc3c2cc(-c2cc(OC)cc4ccccc24)n3C)C[C@@H]1CC#N`, the IC50 at SOS1-KRAS is greater than 10 µM.
